Assay results published in patent publication US20020026053A1, “Novel 3-(substituted) -2- indolinones compounds and use thereof as inhibitors of protein kinase activity” (priority 1997, published 2002).

System: FLK-1 receptor
Assay: FLK-1 Assay (cellular/catalytic ELISA, VEGF-stimulated phosphotyrosine)
Format: cell-based
Set-up: concentration or dose not given beside the values
Conditions: protocol P.110
Summary of the method: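 Receptor phosphotyrosine ELISA: Flk-1-expressing NIH3T3 C7#3 cells, starved overnight in 0.1% FBS medium, received compound (1:200 final dilution, 0.5% DMSO) for 2 h at 37 °C, then VEGF. Anti-FLK-1-captured receptor was probed with anti-phosphotyrosine UB40 and peroxidase/ABTS read-out, relative to cells without compound.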

SMILES | Flk Kinase % Inhibition (P.110) [%]
Cc1ccc(C)c(C=C2C(=O)Nc3c(Br)cc(Br)c(C)c32)c1 [10737/H07] | 15.5
Cc1c(Br)cc(Br)c2c1C(=Cc1ccc3ccccc3c1)C(=O)N2 [10737/H08] | 10.0
Cc1c(Br)cc(Br)c2c1C(=Cc1ccc(Oc3ccccc3)cc1)C(=O)N2 [10737/H09] | 5.5
Cc1c(Br)cc(Br)c2c1C(=Cc1cccc(Oc3ccc(C(C)(C)C)cc3)c1)C(=O)N2 [10737/H10] | 10.5
Cc1c(Br)cc(Br)c2c1C(=Cc1cccc(Oc3cccc(C(F)(F)F)c3)c1)C(=O)N2 [10737/H11] | 14.5
Cc1ccc(Oc2cccc(C=C3C(=O)Nc4c(Br)cc(Br)cc43)c2)cc1 [10738/A02] | −14.2
O=C1Nc2c(Br)cc(Br)cc2C1=Cc1cccc(Oc2ccc(Cl)c(Cl)c2)c1 [10738/A03] | 12.8
COc1ccc(C=C2C(=O)Nc3c(Br)cc(Br)cc32)cc1O [10738/A04] | −16.2
O=C1Nc2c(Br)cc(Br)cc2C1=Cc1cc(O)ccc1[N+](=O)[O-] [10738/A05] | −24.5
O=C1Nc2c(Br)cc(Br)cc2C1=Cc1cccc(O)c1O [10738/A06] | 77.3
O=C1Nc2c(Br)cc(Br)cc2C1=Cc1cc(O)cc(O)c1 [10738/A07] | −22.1
O=C1Nc2c(Br)cc(Br)cc2C1=Cc1ccc(Cl)c(Cl)c1 [10738/A08] | −9.3
COc1ccccc1C=C1C(=O)Nc2c(Br)cc(Br)cc21 [10738/A09] | −9.8
CC(C)c1ccc(C=C2C(=O)Nc3c(Br)cc(Br)cc32)cc1 [10738/A10] | −8.5
CCCOc1ccc(C=C2C(=O)Nc3c(Br)cc(Br)cc32)cc1 [10738/A11] | −7.5
Cc1ccc(Oc2cccc(C=C3C(=O)Nc4ccc(I)cc43)c2)cc1 [10738/B02] | −8.5
O=C1Nc2ccc(I)cc2C1=Cc1cccc(Oc2ccc(Cl)c(Cl)c2)c1 [10738/B03] | −1.2
COc1ccc(C=C2C(=O)Nc3ccc(I)cc32)cc1O [10738/B04] | 55.0
O=C1Nc2ccc(I)cc2C1=Cc1cc(O)ccc1[N+](=O)[O-] [10738/B05] | −13.1
O=C1Nc2ccc(I)cc2C1=Cc1cccc(O)c1O [10738/B06] | −44.1
O=C1Nc2ccc(I)cc2C1=Cc1cc(O)cc(O)c1 [10738/B07] | −22.7
O=C1Nc2ccc(I)cc2C1=Cc1ccc(Cl)c(Cl)c1 [10738/B08] | −0.7
COc1ccccc1C=C1C(=O)Nc2ccc(I)cc21 [10738/B09] | −6.2

SMILES | Flk Kinase % Inhibition (P.110) [%]
CC(C)c1ccc(C=C2C(=O)Nc3ccc(I)cc32)cc1 [10738/B10] | 14.3
CCCOc1ccc(C=C2C(=O)Nc3ccc(I)cc32)cc1 [10738/B11] | 8.8
Cc1ccc(Oc2cccc(C=C3C(=O)Nc4ccc(Br)c(C)c43)c2)cc1 [10738/C02] | −0.1
Cc1c(Br)ccc2c1C(=Cc1cccc(Oc3ccc(Cl)c(Cl)c3)c1)C(=O)N2 [10738/C03] | 28.0
COc1ccc(C=C2C(=O)Nc3ccc(Br)c(C)c32)cc1O [10738/C04] | 84.2
Cc1c(Br)ccc2c1C(=Cc1cc(O)ccc1[N+](=O)[O-])C(=O)N2 [10738/C05] | −4.4
Cc1c(Br)ccc2c1C(=Cc1cccc(O)c1O)C(=O)N2 [10738/C06] | −68.1
Cc1c(Br)ccc2c1C(=Cc1cc(O)cc(O)c1)C(=O)N2 [10738/C07] | −7.4
Cc1c(Br)ccc2c1C(=Cc1ccc(Cl)c(Cl)c1)C(=O)N2 [10738/C08] | −7.4
COc1ccccc1C=C1C(=O)Nc2ccc(Br)c(C)c21 [10738/C09] | 4.5
Cc1c(Br)ccc2c1C(=Cc1ccc(C(C)C)cc1)C(=O)N2 [10738/C10] | −2.5
CCCOc1ccc(C=C2C(=O)Nc3ccc(Br)c(C)c32)cc1 [10738/C11] | 8.4
CNS(=O)(=O)c1ccc2c(c1)C(=Cc1cccc(Oc3ccc(C)cc3)c1)C(=O)N2 [10738/D02] | 2.8
CNS(=O)(=O)c1ccc2c(c1)C(=Cc1cccc(Oc3ccc(Cl)c(Cl)c3)c1)C(=O)N2 [10738/D03] | 13.6
CNS(=O)(=O)c1ccc2c(c1)C(=Cc1ccc(OC)c(O)c1)C(=O)N2 [10738/D04] | −13.1
CNS(=O)(=O)c1ccc2c(c1)C(=Cc1cc(O)ccc1[N+](=O)[O-])C(=O)N2 [10738/D05] | −12.5
CNS(=O)(=O)c1ccc2c(c1)C(=Cc1cccc(O)c1O)C(=O)N2 [10738/D06] | −26.7
CNS(=O)(=O)c1ccc2c(c1)C(=Cc1cc(O)cc(O)c1)C(=O)N2 [10738/D07] | 10.3
CNS(=O)(=O)c1ccc2c(c1)C(=Cc1ccc(Cl)c(Cl)c1)C(=O)N2 [10738/D08] | 11.9
CNS(=O)(=O)c1ccc2c(c1)C(=Cc1ccccc1OC)C(=O)N2 [10738/D09] | 9.4
CNS(=O)(=O)c1ccc2c(c1)C(=Cc1ccc(C(C)C)cc1)C(=O)N2 [10738/D10] | 15.4
CCCOc1ccc(C=C2C(=O)Nc3ccc(S(=O)(=O)NC)cc32)cc1 [10738/D11] | 10.4
Cc1ccc(Oc2cccc(C=C3C(=O)Nc4ccc(S(=O)(=O)Nc5ccc(C(F)(F)F)cc5)cc43)c2)cc1 [10738/E02] | 3.6

SMILES | Flk Kinase % Inhibition (P.110) [%]
O=C1Nc2ccc(S(=O)(=O)Nc3ccc(C(F)(F)F)cc3)cc2C1=Cc1cccc(Oc2ccc(Cl)c(Cl)c2)c1 [10738/E03] | 7.8
COc1ccc(C=C2C(=O)Nc3ccc(S(=O)(=O)Nc4ccc(C(F)(F)F)cc4)cc32)cc1O [10738/E04] | −11.5
O=C1Nc2ccc(S(=O)(=O)Nc3ccc(C(F)(F)F)cc3)cc2C1=Cc1cc(O)ccc1[N+](=O)[O-] [10738/E05] | −4.8
O=C1Nc2ccc(S(=O)(=O)Nc3ccc(C(F)(F)F)cc3)cc2C1=Cc1cccc(O)c1O [10738/E06] | 10.1
O=C1Nc2ccc(S(=O)(=O)Nc3ccc(C(F)(F)F)cc3)cc2C1=Cc1cc(O)cc(O)c1 [10738/E07] | 43.4
O=C1Nc2ccc(S(=O)(=O)Nc3ccc(C(F)(F)F)cc3)cc2C1=Cc1ccc(Cl)c(Cl)c1 [10738/E08] | 12.8
COc1ccccc1C=C1C(=O)Nc2ccc(S(=O)(=O)Nc3ccc(C(F)(F)F)cc3)cc21 [10738/E09] | 21.2
CC(C)c1ccc(C=C2C(=O)Nc3ccc(S(=O)(=O)Nc4ccc(C(F)(F)F)cc4)cc32)cc1 [10738/E10] | 5.1
CCCOc1ccc(C=C2C(=O)Nc3ccc(S(=O)(=O)Nc4ccc(C(F)(F)F)cc4)cc32)cc1 [10738/E11] | 10.2
Cc1ccc(Oc2cccc(C=C3C(=O)Nc4ccc(S(=O)(=O)N5CCOCC5)cc43)c2)cc1 [10738/F02] | 15.0
O=C1Nc2ccc(S(=O)(=O)N3CCOCC3)cc2C1=Cc1cccc(Oc2ccc(Cl)c(Cl)c2)c1 [10738/F03] | 9.0
COc1ccc(C=C2C(=O)Nc3ccc(S(=O)(=O)N4CCOCC4)cc32)cc1O [10738/F04] | −32.3
O=C1Nc2ccc(S(=O)(=O)N3CCOCC3)cc2C1=Cc1cc(O)ccc1[N+](=O)[O-] [10738/F05] | 3.3
O=C1Nc2ccc(S(=O)(=O)N3CCOCC3)cc2C1=Cc1cccc(O)c1O [10738/F06] | −12.6
O=C1Nc2ccc(S(=O)(=O)N3CCOCC3)cc2C1=Cc1cc(O)cc(O)c1 [10738/F07] | 6.4
O=C1Nc2ccc(S(=O)(=O)N3CCOCC3)cc2C1=Cc1ccc(Cl)c(Cl)c1 [10738/F08] | 16.8
COc1ccccc1C=C1C(=O)Nc2ccc(S(=O)(=O)N3CCOCC3)cc21 [10738/F09] | 1.7
CC(C)c1ccc(C=C2C(=O)Nc3ccc(S(=O)(=O)N4CCOCC4)cc32)cc1 [10738/F10] | 9.5
CCCOc1ccc(C=C2C(=O)Nc3ccc(S(=O)(=O)N4CCOCC4)cc32)cc1 [10738/F11] | 15.8
Cc1ccc(Oc2cccc(C=C3C(=O)Nc4ccc(CCCl)cc43)c2)cc1 [10738/G02] | −10.5
O=C1Nc2ccc(CCCl)cc2C1=Cc1cccc(Oc2ccc(Cl)c(Cl)c2)c1 [10738/G03] | −4.1
COc1ccc(C=C2C(=O)Nc3ccc(CCCl)cc32)cc1O [10738/G04] | −57.2
O=C1Nc2ccc(CCCl)cc2C1=Cc1cc(O)ccc1[N+](=O)[O-] [10738/G05] | 4.0
